Results reported in ChEMBL document CHEMBL5724806, “Unraveling interindividual differences and functional consequences of gut microbial metabolism of immunosuppressants” (2024).

Tests used:
Format in all cases: ADME
[1] = (§1) The drug is tested on Coprococcus comes strain: ATCC27758 for biotransformation under anaerobic condition. The drug concentrations were measured over 6 timepoints collected between 0 and 12 hours of incubation by liquid-chromatography-coupled mass spectrometry (LC–MS); set-up: dose 5 uM, timepoint 0, 1.5, 3, 6, 9, 12 hours; conditions: 5 µM
[2] = (§2) The drug is tested on Bifidobacterium longum strain: DSM20088 for biotransformation under microaerobic condition. The drug concentrations were measured over 6 timepoints collected between 0 and 12 hours of incubation by liquid-chromatography-coupled mass spectrometry (LC–MS); set-up: dose 5 uM, timepoint 0, 1.5, 3, 6, 9, 12 hours; conditions: 5 µM
[3] = The drug is tested on Eubacterium hallii strain: DSM3353 for biotransformation under anaerobic condition. The drug concentrations were measured over 6 timepoints collected between 0 and 12 hours of incubation by liquid-chromatography-coupled mass spectrometry (LC–MS); set-up: dose 5 uM, timepoint 0, 1.5, 3, 6, 9, 12 hours; conditions: anaerobutyricum hallii, 5 µM
[4] = The drug is tested on Clostridium bolteae strain: DSM15670 for biotransformation under anaerobic condition. The drug concentrations were measured over 6 timepoints collected between 0 and 12 hours of incubation by liquid-chromatography-coupled mass spectrometry (LC–MS); set-up: dose 5 uM, timepoint 0, 1.5, 3, 6, 9, 12 hours; conditions: enterocloster bolteae, 5 µM
[5] = The drug is tested on Bacteroides caccae strain: DSM19024 for biotransformation under anaerobic condition. The drug concentrations were measured over 6 timepoints collected between 0 and 12 hours of incubation by liquid-chromatography-coupled mass spectrometry (LC–MS); set-up: dose 5 uM, timepoint 0, 1.5, 3, 6, 9, 12 hours; conditions: 5 µM
[6] = The drug is tested on Streptococcus anginosus strain: DSM20563 for biotransformation under anaerobic condition. The drug concentrations were measured over 6 timepoints collected between 0 and 12 hours of incubation by liquid-chromatography-coupled mass spectrometry (LC–MS); set-up: dose 5 uM, timepoint 0, 1.5, 3, 6, 9, 12 hours; conditions: 5 µM
[7] = The drug is tested on Lactobacillus fermentum strain: DSM20052 for biotransformation under microaerobic condition. The drug concentrations were measured over 6 timepoints collected between 0 and 12 hours of incubation by liquid-chromatography-coupled mass spectrometry (LC–MS); set-up: dose 5 uM, timepoint 0, 1.5, 3, 6, 9, 12 hours; conditions: limosilactobacillus fermentum, 5 µM
[8] = The drug is tested on Faecalibacterium prausnitzii strain: DSM17677 for biotransformation under anaerobic condition. The drug concentrations were measured over 6 timepoints collected between 0 and 12 hours of incubation by liquid-chromatography-coupled mass spectrometry (LC–MS); set-up: dose 5 uM, timepoint 0, 1.5, 3, 6, 9, 12 hours; conditions: faecalibacterium duncaniae, 5 µM
[9] = The drug is tested on Escherichia coli strain: DSM27469 for biotransformation under microaerobic condition. The drug concentrations were measured over 6 timepoints collected between 0 and 12 hours of incubation by liquid-chromatography-coupled mass spectrometry (LC–MS); set-up: dose 5 uM, timepoint 0, 1.5, 3, 6, 9, 12 hours; conditions: 5 µM
[10] = The drug is tested on Streptococcus sanguinis strain: DSM20567 for biotransformation under anaerobic condition. The drug concentrations were measured over 6 timepoints collected between 0 and 12 hours of incubation by liquid-chromatography-coupled mass spectrometry (LC–MS); set-up: dose 5 uM, timepoint 0, 1.5, 3, 6, 9, 12 hours; conditions: 5 µM
[11] = The drug is tested on Streptococcus mitis strain: DSM12643 for biotransformation under microaerobic condition. The drug concentrations were measured over 6 timepoints collected between 0 and 12 hours of incubation by liquid-chromatography-coupled mass spectrometry (LC–MS); set-up: dose 5 uM, timepoint 0, 1.5, 3, 6, 9, 12 hours; conditions: 5 µM
[12] = The drug is tested on Enterococcus faecalis strain: ATCC29212 for biotransformation under microaerobic condition. The drug concentrations were measured over 6 timepoints collected between 0 and 12 hours of incubation by liquid-chromatography-coupled mass spectrometry (LC–MS); set-up: dose 5 uM, timepoint 0, 1.5, 3, 6, 9, 12 hours; conditions: 5 µM
[13] = The drug is tested on Odoribacter splanchnicus strain: DSM20712 for biotransformation under anaerobic condition. The drug concentrations were measured over 6 timepoints collected between 0 and 12 hours of incubation by liquid-chromatography-coupled mass spectrometry (LC–MS); set-up: dose 5 uM, timepoint 0, 1.5, 3, 6, 9, 12 hours; conditions: 5 µM
[14] = as §1, with “the gut metagenome community of T-03 with ENA study accession number: PRJEB31790” for “Coprococcus comes strain: ATCC27758”, “7” for “6”; set-up: dose 5 uM, timepoint 0, 0.75, 1.5, 3, 6, 9, 12 hours; conditions: 5 µM
[15] = The drug is tested on Parabacteroides merdae strain: DSM19495 for biotransformation under anaerobic condition. The drug concentrations were measured over 6 timepoints collected between 0 and 12 hours of incubation by liquid-chromatography-coupled mass spectrometry (LC–MS); set-up: dose 5 uM, timepoint 0, 1.5, 3, 6, 9, 12 hours; conditions: 5 µM
[16] = The drug is tested on Dorea formicigenerans strain: DSM3992 for biotransformation under anaerobic condition. The drug concentrations were measured over 6 timepoints collected between 0 and 12 hours of incubation by liquid-chromatography-coupled mass spectrometry (LC–MS); set-up: dose 5 uM, timepoint 0, 1.5, 3, 6, 9, 12 hours; conditions: 5 µM
[17] = The drug is tested on Parabacteroides distasonis strain: DSM20701 for biotransformation under anaerobic condition. The drug concentrations were measured over 6 timepoints collected between 0 and 12 hours of incubation by liquid-chromatography-coupled mass spectrometry (LC–MS); set-up: dose 5 uM, timepoint 0, 1.5, 3, 6, 9, 12 hours; conditions: 5 µM
[18] = The drug is tested on Roseburia intestinalis strain: DSM14610 for biotransformation under anaerobic condition. The drug concentrations were measured over 6 timepoints collected between 0 and 12 hours of incubation by liquid-chromatography-coupled mass spectrometry (LC–MS); set-up: dose 5 uM, timepoint 0, 1.5, 3, 6, 9, 12 hours; conditions: 5 µM
[19] = The drug is tested on Actinomyces graevenitzii strain: DSM15540 for biotransformation under microaerobic condition. The drug concentrations were measured over 6 timepoints collected between 0 and 12 hours of incubation by liquid-chromatography-coupled mass spectrometry (LC–MS); set-up: dose 5 uM, timepoint 0, 1.5, 3, 6, 9, 12 hours; conditions: 5 µM
[20] = The drug is tested on Streptococcus mitis strain: DSM12643 for biotransformation under anaerobic condition. The drug concentrations were measured over 6 timepoints collected between 0 and 12 hours of incubation by liquid-chromatography-coupled mass spectrometry (LC–MS); set-up: dose 5 uM, timepoint 0, 1.5, 3, 6, 9, 12 hours; conditions: 5 µM
[21] = The drug is tested on Lactobacillus gasseri strain: DSM20243 for biotransformation under microaerobic condition. The drug concentrations were measured over 6 timepoints collected between 0 and 12 hours of incubation by liquid-chromatography-coupled mass spectrometry (LC–MS); set-up: dose 5 uM, timepoint 0, 1.5, 3, 6, 9, 12 hours; conditions: 5 µM
[22] = as §2, with “the gut metagenome community of A-06 with ENA study accession number: PRJEB31790” for “Bifidobacterium longum strain: DSM20088”, “7” for “6”; set-up: dose 5 uM, timepoint 0, 0.75, 1.5, 3, 6, 9, 12 hours; conditions: 5 µM
[23] = The drug is tested on Actinomyces naeslundi strain: DSM43013 for biotransformation under anaerobic condition. The drug concentrations were measured over 6 timepoints collected between 0 and 12 hours of incubation by liquid-chromatography-coupled mass spectrometry (LC–MS); set-up: dose 5 uM, timepoint 0, 1.5, 3, 6, 9, 12 hours; conditions: actinomyces naeslundii, 5 µM
[24] = as §1, with “the gut metagenome community of A-09 with ENA study accession number: PRJEB31790” for “Coprococcus comes strain: ATCC27758”, “7” for “6”; set-up: dose 5 uM, timepoint 0, 0.75, 1.5, 3, 6, 9, 12 hours; conditions: 5 µM
[25] = The drug is tested on Bacteroides uniformis strain: DSM6597 for biotransformation under anaerobic condition. The drug concentrations were measured over 6 timepoints collected between 0 and 12 hours of incubation by liquid-chromatography-coupled mass spectrometry (LC–MS); set-up: dose 5 uM, timepoint 0, 1.5, 3, 6, 9, 12 hours; conditions: 5 µM
[26] = as §2, with “the gut metagenome community of A-10 with ENA study accession number: PRJEB31790” for “Bifidobacterium longum strain: DSM20088”, “7” for “6”; set-up: dose 5 uM, timepoint 0, 0.75, 1.5, 3, 6, 9, 12 hours; conditions: 5 µM
[27] = as §1, with “the gut metagenome community of A-03 with ENA study accession number: PRJEB31790” for “Coprococcus comes strain: ATCC27758”, “7” for “6”; set-up: dose 5 uM, timepoint 0, 0.75, 1.5, 3, 6, 9, 12 hours; conditions: 5 µM
[28] = The drug is tested on Blautia hansenii strain: DSM20583 for biotransformation under anaerobic condition. The drug concentrations were measured over 6 timepoints collected between 0 and 12 hours of incubation by liquid-chromatography-coupled mass spectrometry (LC–MS); set-up: dose 5 uM, timepoint 0, 1.5, 3, 6, 9, 12 hours; conditions: 5 µM

| Bacterial Biotransformation [1] | Bacterial Biotransformation [2] | Bacterial Biotransformation [3] | Bacterial Biotransformation [5] | Bacterial Biotransformation [6] | Bacterial Biotransformation [7] | Bacterial Biotransformation [8] | Bacterial Biotransformation [9] | Bacterial Biotransformation [10] | Bacterial Biotransformation [11] | Bacterial Biotransformation [12] | Bacterial Biotransformation [13] | Bacterial Biotransformation [14] | Bacterial Biotransformation [15] | Bacterial Biotransformation [16] | Bacterial Biotransformation [17] | Bacterial Biotransformation [18] | Bacterial Biotransformation [19] | Bacterial Biotransformation [20] | Bacterial Biotransformation [21] | Compound | further results |
| --- | --- | --- | --- | --- | --- | --- | --- | --- | --- | --- | --- | --- | --- | --- | --- | --- | --- | --- | --- | --- | --- |
| Compound NOT metabolized | Compound NOT metabolized | Compound NOT metabolized | Compound NOT metabolized | Compound NOT metabolized | Compound NOT metabolized | Compound NOT metabolized | Compound NOT metabolized | Compound NOT metabolized | Compound NOT metabolized | Compound NOT metabolized | Compound NOT metabolized | Compound NOT metabolized | Compound NOT metabolized | Compound NOT metabolized | Compound NOT metabolized | Compound NOT metabolized | Compound NOT metabolized | Compound NOT metabolized | Compound NOT metabolized | CCOc1nc2cccc(C(=O)O)c2n1Cc1ccc(-c2ccccc2-c2nnn[nH]2)cc1 | Bacterial Biotransformation [4]: Compound NOT metabolized; Bacterial Biotransformation [22]: Compound NOT metabolized; Bacterial Biotransformation [23]: Compound NOT metabolized; Bacterial Biotransformation [24]: Compound NOT metabolized; Bacterial Biotransformation [25]: Compound NOT metabolized; Bacterial Biotransformation [26]: Compound NOT metabolized; Bacterial Biotransformation [27]: Compound NOT metabolized; Bacterial Biotransformation [28]: Compound NOT metabolized |
| Compound NOT metabolized | Compound NOT metabolized | Compound NOT metabolized | Compound NOT metabolized | Compound NOT metabolized | Compound NOT metabolized | Compound NOT metabolized | Compound NOT metabolized | Compound NOT metabolized | Compound NOT metabolized | Compound NOT metabolized | Compound NOT metabolized | Compound NOT metabolized | Compound NOT metabolized | Compound NOT metabolized | Compound NOT metabolized | Compound NOT metabolized | Compound NOT metabolized | Compound NOT metabolized | Compound NOT metabolized | C[C@@H](NCCCc1cccc(C(F)(F)F)c1)c1cccc2ccccc12 | Bacterial Biotransformation [4]: Compound NOT metabolized; Bacterial Biotransformation [22]: Compound NOT metabolized; Bacterial Biotransformation [23]: Compound NOT metabolized; Bacterial Biotransformation [24]: Compound NOT metabolized; Bacterial Biotransformation [25]: Compound NOT metabolized; Bacterial Biotransformation [26]: Compound NOT metabolized; Bacterial Biotransformation [27]: Compound NOT metabolized; Bacterial Biotransformation [28]: Compound NOT metabolized |

| Compound | Bacterial Biotransformation [1] | Bacterial Biotransformation [2] | Bacterial Biotransformation [3] | Bacterial Biotransformation [5] | Bacterial Biotransformation [6] | Bacterial Biotransformation [7] | Bacterial Biotransformation [8] | Bacterial Biotransformation [9] | Bacterial Biotransformation [10] | Bacterial Biotransformation [11] | Bacterial Biotransformation [12] | Bacterial Biotransformation [13] | Bacterial Biotransformation [14] | Bacterial Biotransformation [15] | Bacterial Biotransformation [16] | Bacterial Biotransformation [17] | Bacterial Biotransformation [18] | Bacterial Biotransformation [19] | Bacterial Biotransformation [20] | Bacterial Biotransformation [21] | further results |
| --- | --- | --- | --- | --- | --- | --- | --- | --- | --- | --- | --- | --- | --- | --- | --- | --- | --- | --- | --- | --- | --- |
| CCOC(=O)C1=C(COCCN)NC(C)=C(C(=O)OC)C1c1ccccc1Cl (stereo not drawn) [AMLODIPINE] | Compound NOT metabolized | Compound NOT metabolized | Compound NOT metabolized | Compound NOT metabolized | Compound NOT metabolized | Compound NOT metabolized | Compound NOT metabolized | Compound NOT metabolized | Compound NOT metabolized | Compound NOT metabolized | Compound metabolized | Compound metabolized | Compound NOT metabolized | Compound NOT metabolized | Compound NOT metabolized | Compound NOT metabolized | Compound NOT metabolized | Compound NOT metabolized | Compound NOT metabolized | Compound NOT metabolized | Bacterial Biotransformation [22]: Compound NOT metabolized; Bacterial Biotransformation [23]: Compound NOT metabolized; Bacterial Biotransformation [24]: Compound NOT metabolized; Bacterial Biotransformation [25]: Compound NOT metabolized; Bacterial Biotransformation [26]: Compound NOT metabolized; Bacterial Biotransformation [27]: Compound NOT metabolized; Bacterial Biotransformation [28]: Compound NOT metabolized |
